PubChem BioAssay AID330 (DTP/NCI, 2004)
“And” between values parts separate entries of the source, which are not always exact repeats. Identical values can stand only once. Inconclusive results and toxic doses are left out.

System: P388 leukemia ip, CD2F1 mice, survival T/C
Assay: NCI In Vivo Anticancer Drug Screen. Data for tumor model P388 Leukemia (intraperitoneal) in CD2F1 (CDF1) mice
Details: endpoint: median survival time, higher = longer survival
Summary of the method: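 Mice carrying the transplanted tumor received test compound or vehicle. Survival was recorded in each group, and the value is the treated-group measurement divided by that of the vehicle-treated control group.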

[1] = dose: 12.5 mg/kg/injection, schedule: Q01DX009 (ip), vehicle: saline
[2] = dose: 25.0 mg/kg/injection, schedule: Q01DX009 (ip), vehicle: saline
[3] = dose: 60.0 mg/kg/injection, schedule: Q01DX005 (ip), vehicle: saline with Tween-80
[4] = dose: 120.0 mg/kg/injection, schedule: Q01DX005 (ip), vehicle: saline with Tween-80
[5] = dose: 240.0 mg/kg/injection, schedule: Q01DX005 (ip), vehicle: saline with Tween-80
[6] = dose: 0.5 mg/kg/injection, schedule: Q01DX009 (ip), vehicle: water
[7] = dose: 1.0 mg/kg/injection, schedule: Q01DX009 (ip), vehicle: water
[8] = dose: 2.0 mg/kg/injection, schedule: Q01DX009 (ip), vehicle: water
[9] = dose: 100.0 mg/kg/injection, schedule: Q01DX001 (ip), vehicle: Klucel (hydroxypropylcellulose) (HPC)
[10] = dose: 200.0 mg/kg/injection, schedule: Q01DX001 (ip), vehicle: Klucel (hydroxypropylcellulose) (HPC)
[11] = dose: 400.0 mg/kg/injection, schedule: Q01DX001 (ip), vehicle: Klucel (hydroxypropylcellulose) (HPC)
[12] = dose: 50.0 mg/kg/injection, schedule: Q01DX009 (ip), vehicle: saline with Tween-80
[13] = dose: 50.0 mg/kg/injection, schedule: Q01DX005 (ip), vehicle: saline with Tween-80
[14] = dose: 100.0 mg/kg/injection, schedule: Q01DX005 (ip), vehicle: saline with Tween-80
[15] = dose: 50.0 mg/kg/injection, schedule: Q01DX005 (ip), vehicle: Klucel (hydroxypropylcellulose) (HPC)
[16] = dose: 100.0 mg/kg/injection, schedule: Q01DX005 (ip), vehicle: Klucel (hydroxypropylcellulose) (HPC)
[17] = dose: 50.0 mg/kg/injection, schedule: Q01DX009 (ip), vehicle: saline
[18] = dose: 100.0 mg/kg/injection, schedule: Q01DX009 (ip), vehicle: saline
[19] = dose: 200.0 mg/kg/injection, schedule: Q01DX009 (ip), vehicle: saline

Compound: CN(C)C(=O)C1OC1(C)c1ccccc1 (stereo unspecified)
- T/C (dose: 100.0 mg/kg/injection, schedule: Q04DX003 (ip), vehicle: Klucel (hydroxypropylcellulose) (HPC)): 103 % of control
- T/C (dose: 200.0 mg/kg/injection, schedule: Q04DX003 (ip), vehicle: Klucel (hydroxypropylcellulose) (HPC)): 108 % of control
- T/C (dose: 400.0 mg/kg/injection, schedule: Q04DX003 (ip), vehicle: Klucel (hydroxypropylcellulose) (HPC)): 117 % of control

Compound: CCN(CC)CCNc1c(C)ccc2cccnc12
- T/C (dose: 12.5 mg/kg/injection, schedule: Q01DX005 (ip), vehicle: saline): 102 % of control
- T/C (dose: 25.0 mg/kg/injection, schedule: Q01DX005 (ip), vehicle: saline): 93 % of control
- T/C (dose: 50.0 mg/kg/injection, schedule: Q01DX005 (ip), vehicle: saline): 100 % of control

Compound: CCCCCCCCCCCCCCCCCCOP(=O)([O-])OCC[N+](C)(C)C
- T/C [1]: 98 % of control
- T/C [2]: 107 % of control

Compound: COC(=O)/C(=C/c1ccccc1)N=[N+]=[N-]
- T/C [3]: 107 % of control
- T/C [4]: 110 % of control
- T/C [5]: 117 % of control

Compound: CC(C)C/C=C/CCCCCCCCCC(=O)NCC(=O)NC1C(C)OC(Nc2ncnc3nc[nH]c23)C(O)C1O (stereo unspecified)
- T/C [6]: 112 % of control and 123 % of control (2×)
- T/C [7]: 101 % of control and 103 % of control and 121 % of control
- T/C [8]: 155 % of control
- T/C (dose: 4.0 mg/kg/injection, schedule: Q01DX009 (ip), vehicle: water): 123 % of control and 87 % of control
- T/C (dose: 8.0 mg/kg/injection, schedule: Q01DX009 (ip), vehicle: water): 156 % of control and 178 % of control

Compound: CN(C)c1ccc(C2(C(=O)O)CCCC(C)(C)C2)cc1 (stereo unspecified)
- T/C [9]: 95 % of control
- T/C [10]: 95 % of control
- T/C [11]: 92 % of control

Compound: CCOC(=O)c1ccc(NC(=O)N2CC(C)OC(C)C2)cc1 (stereo unspecified)
- T/C [12]: 87 % of control
- T/C (dose: 100.0 mg/kg/injection, schedule: Q01DX009 (ip), vehicle: saline with Tween-80): 97 % of control
- T/C (dose: 200.0 mg/kg/injection, schedule: Q01DX009 (ip), vehicle: saline with Tween-80): 97 % of control

Compound: Cc1ccc(/C2=C(\c3ccc(C)cc3)N(c3ccc(C)cc3)CCCCN2c2ccc(C)cc2)cc1
- T/C [9]: 92 % of control
- T/C [10]: 87 % of control
- T/C [11]: 92 % of control

Compound: CCOc1c(N=Nc2ccc(OC)cc2)c(C)nn1C(N)=S
- T/C (dose: 15.0 mg/kg/injection, schedule: Q01DX005 (ip), vehicle: Klucel + Tween-80): 101 % of control
- T/C (dose: 30.0 mg/kg/injection, schedule: Q01DX005 (ip), vehicle: Klucel + Tween-80): 100 % of control
- T/C (dose: 60.0 mg/kg/injection, schedule: Q01DX005 (ip), vehicle: Klucel + Tween-80): 98 % of control and 123 % of control
- T/C (dose: 120.0 mg/kg/injection, schedule: Q01DX005 (ip), vehicle: Klucel + Tween-80): 110 % of control and 91 % of control
- T/C (dose: 240.0 mg/kg/injection, schedule: Q01DX005 (ip), vehicle: Klucel + Tween-80): 100 % of control

Compound: OCCCNc1nc2cc(Cl)ccc2o1
- T/C [3]: 119 % of control
- T/C [4]: 103 % of control
- T/C [5]: 100 % of control

Compound: NC(=S=O)C(N)=S=O
- T/C [13]: 103 % of control and 110 % of control
- T/C [14]: 112 % of control and 117 % of control

Compound: Cc1c(N=Nc2ccc([N+](=O)[O-])cc2)nc2scc(-c3ccccc3)n12
- T/C (dose: 25.0 mg/kg/injection, schedule: Q04DX002 (ip), vehicle: Klucel (hydroxypropylcellulose) (HPC)): 121 % of control
- T/C (dose: 100.0 mg/kg/injection, schedule: Q04DX002 (ip), vehicle: Klucel (hydroxypropylcellulose) (HPC)): 86 % of control

Compound: COCCCNC(=O)c1nnn2c1nc(N)c1cc(Cl)ccc12
- T/C [15]: 94 % of control
- T/C [16]: 88 % of control

Compound: N[N+]1(CCS(N)(=O)=O)CCOCC1
- T/C [17]: 110 % of control
- T/C [18]: 91 % of control
- T/C [19]: 96 % of control

Compound: C=C(CO)C(=O)OC1CC(=C)C2CC(O)C(=C)C2C2OC(=O)C(=C)C12 (stereo unspecified)
- T/C (dose: 100.0 mg/kg/injection, schedule: Q01DX001 (ip), vehicle: saline): 113 % of control
- T/C (dose: 200.0 mg/kg/injection, schedule: Q01DX001 (ip), vehicle: saline): 99 % of control
- T/C (dose: 400.0 mg/kg/injection, schedule: Q01DX001 (ip), vehicle: saline): 104 % of control

Compound: CC(=O)OCC1OC(n2cnc3c2N=CN2C(CCl)=CC(=O)NC32)C(OC(C)=O)C1OC(C)=O (stereo unspecified)
- T/C (dose: 100.0 mg/kg/injection, schedule: Q01DX001 (ip), vehicle: saline with Tween-80): 103 % of control
- T/C (dose: 200.0 mg/kg/injection, schedule: Q01DX001 (ip), vehicle: saline with Tween-80): 103 % of control
- T/C (dose: 400.0 mg/kg/injection, schedule: Q01DX001 (ip), vehicle: saline with Tween-80): 110 % of control

Compound: Cc1cc(N)c(C)c2c1[nH]c1ccc(Br)cc12
- T/C [13]: 94 % of control
- T/C [14]: 93 % of control
- T/C (dose: 200.0 mg/kg/injection, schedule: Q01DX005 (ip), vehicle: saline with Tween-80): 89 % of control

Compound: CC1=CCC2C(C)(C)CCCC2(C)C1CCC(C)(O)C(O)CO (stereo unspecified)
- T/C (dose: 25.0 mg/kg/injection, schedule: Q01DX005 (ip), vehicle: Klucel + Tween-80): 98 % of control
- T/C (dose: 50.0 mg/kg/injection, schedule: Q01DX005 (ip), vehicle: Klucel + Tween-80): 101 % of control
- T/C (dose: 100.0 mg/kg/injection, schedule: Q01DX005 (ip), vehicle: Klucel + Tween-80): 98 % of control
- T/C (dose: 200.0 mg/kg/injection, schedule: Q01DX005 (ip), vehicle: Klucel + Tween-80): 100 % of control

Compound: COc1ccc(CSC(=S)Nc2cccc(S(F)(F)(F)(F)F)c2)cc1
- T/C (dose: 12.5 mg/kg/injection, schedule: Q01DX009 (ip), vehicle: saline with Tween-80): 97 % of control
- T/C [1]: 104 % of control
- T/C (dose: 25.0 mg/kg/injection, schedule: Q01DX009 (ip), vehicle: saline with Tween-80): 100 % of control
- T/C [2]: 98 % of control
- T/C [12]: 100 % of control
- T/C [17]: 100 % of control and 119 % of control
- T/C [18]: 116 % of control
- T/C [19]: 118 % of control

Compound: O=C1NC(=O)C(=Cc2ccc([N+](=O)[O-])cc2)C(=O)N1
- T/C [15]: 107 % of control
- T/C [16]: 99 % of control
- T/C (dose: 200.0 mg/kg/injection, schedule: Q01DX005 (ip), vehicle: Klucel (hydroxypropylcellulose) (HPC)): 104 % of control

Compound: CCC1=CC2CC(c3cc4c(cc3OC)N(C)C3C(O)(C(=O)NC)C(OC(C)=O)C5(CC)C=CCN6CCC43C65)c3[nH]c4ccccc4c3CCN(C1)C2 (stereo unspecified)
- T/C (dose: 0.06 mg/kg/injection, schedule: Q01DX009 (ip), vehicle: water): 101 % of control
- T/C (dose: 0.13 mg/kg/injection, schedule: Q01DX009 (ip), vehicle: water): 101 % of control
- T/C (dose: 0.25 mg/kg/injection, schedule: Q01DX009 (ip), vehicle: water): 95 % of control
- T/C [6]: 89 % of control
- T/C [7]: 94 % of control
- T/C (dose: 2.0 mg/kg/injection, schedule: Q01DX001 (ip), vehicle: water): 103 % of control
- T/C [8]: 97 % of control
- T/C (dose: 4.0 mg/kg/injection, schedule: Q01DX001 (ip), vehicle: water): 99 % of control
- T/C (dose: 8.0 mg/kg/injection, schedule: Q01DX001 (ip), vehicle: water): 98 % of control
- T/C (dose: 16.0 mg/kg/injection, schedule: Q01DX001 (ip), vehicle: water): 94 % of control
- T/C (dose: 25.0 mg/kg/injection, schedule: Q01DX001 (ip), vehicle: other): 91 % of control
- T/C (dose: 32.0 mg/kg/injection, schedule: Q01DX001 (ip), vehicle: water): 100 % of control
- T/C (dose: 100.0 mg/kg/injection, schedule: Q01DX001 (ip), vehicle: other): 91 % of control
- T/C (dose: 200.0 mg/kg/injection, schedule: Q01DX001 (ip), vehicle: other): 94 % of control
- T/C (dose: 400.0 mg/kg/injection, schedule: Q01DX001 (ip), vehicle: other): 94 % of control
